What was measured:
Assay type in all cases: cell-based, Clostridium autoethanogenum
[1] = system: C. autoethanogenum DSM23693; experiment: Linked two reactor (R1, R2) fermentation system, continuous 2-HIBA addition (Examples 2 and 3)
Method: (§1) Fermentations with C. autoethanogenum DSM23693 were carried out in 1.5 L bioreactors at 37° C. The media was prepared according to Table 1. To achieve anaerobicity the reactor vessel was sparged with nitrogen. Prior to inoculation, the gas was switched to either steel mill gas containing H2 (3%), N2 (30%), CO (47%) and CO2 (20%) or pure gases (50% CO, 18-40% CO2, with the balance N2). The gas flow was initially set at 67 ml/min/L, increasing to 200 ml/min during mid-exponential phase, while the agitation was increased from 200 rpm to 800. Na2S was dosed into the bioreactor at 0.25 ml/hr. Once the OD600 reached 1.5, the bioreactor was switched to a continuous mode at a dilution rate of 2.0-1.6 d-l and a bacterial dilution rate of 0.9-0.6 d-l. During continuous mode gas and agitation were adjusted to 900-950 rpm and 800-900 ml/min. Na2S was increased to 1.0 ml/hr.
(§2) Liquid culture samples were taken at differing intervals over the duration of the fermentation. These samples were used to establish the optical density at 600 nm (spectrophotometer) and the level of substrates and products (high performance liquid chromatography—HPLC). HPLC was routinely used to quantify the level of acetate, ethanol and 2,3-butanediol. The input and output gas compositions were analysed using a gas chromatographer (GC), allowing measurement of CO and H2 consumption and CO2 production by the culture.
A two reactor system was used to examine the impact of continuous 2-HIBA addition on the metabolite profile. Initially 0.5 g/L/day (4.8 mM/day) 2-HIBA was added to the R2 only, this increased the production of 2,3-BDO but the ratio only dropped to as low as 1.9:1. Continuous addition of 2-HIBA at 0.5 g/L/day (4.8 mM/day) was then added to the R1. […] This would be achieved by improving the concentration in both the R1 and the R2 as the 2-HIBA is transferred from the R1 to the R2 (through liquid flow) along with improved 2,3-BDO concentrations. The 2,3-BDO concentration increased from 5.7 g/L to 14 g/L in the R1 and from 16 g/L to 21 g/L in the R2 (see FIGS. 3 and 4). The ratio of ethanol:2,3-BDO dropped to 1:1 in the R1 and 1.3:1 in the R2 and remained stable for a period of eight days. The improvement of the ratio was achieved as a result of increased 2,3-BDO concentration and a drop in ethanol production.
Over time the ethanol concentration after the 2-HIBA addition improved whilst the concentration of 2,3-BDO remained stable, this had the effect of improving the total alcohol productivity of the system.
The results achieved in Example 2 were repeated with the aim to improve the overall titre of 2,3-BDO. In this experiment the 2-HIBA concentration was increased to 1 g/L/day (9.6 mM/day).

[2] = system: C. autoethanogenum DSM23693; experiment: Fermentation started in the presence of 2-HIBA, impact on growth (Example 5)
Method: as §1, §2
To see if the 2-HIBA impacts negatively on growth a fermentation was started in the presence of 0.05 g/L (0.48 mM) 2-HIBA. During growth gas and agitation were increased so that by day 5.0 the agitation had reached a maximum of 950 rpm and the gas flow 800 ml/min. At this time the dilution rate was 1.8 day^−1 and the bacterial dilution rate 0.85 day^−1.

LZ1561 = experiment: Differential gene expression analysis before and after 2-HIBA addition (Example 6)
From the text: In order to understand the impact of 2-HIBA on the metabolism of LZ1561 samples were taken for gene expression analysis. A reactor was started up as a batch and after 1 day was turned continuous at a D=1.4 day^−1. Gas flow and agitation were adjusted in order to minimise acetate and maximise ethanol and 2,3-BDO production. By day 7 the Ethanol:2,3-BDO ratio was less than 5:1 and the gas had reached target CO uptake of between 5-6 mol/L/day. On day 9.6 a sample was taken for gene expression analysis representing stable data without 2-HIBA. […] The results for this analysis indicated very clearly that 2-HIBA interacts with the Branch Chain Amino Acid biosynthesis pathway (BCAA). From the results a mode of action of 2-HIBA was proposed and this is illustrated and described in FIG. 11.

[3] = R1, average across eight days, 0.5 g/L/day 2-HIBA
[4] = R1, gas data average across eight days, 0.5 g/L/day 2-HIBA
[5] = R2, average across eight days, 0.5 g/L/day 2-HIBA
[6] = R2, gas data average across eight days, 0.5 g/L/day 2-HIBA
[7] = 0 mM vs 4.8 mM 2-HIBA addition, down-regulated
[8] = 0 mM vs 4.8 mM 2-HIBA addition, up-regulated

With CC(C)(O)C(=O)O [2-HIBA, 2-hydroxyisobutyric acid] the “impact on CO and hydrogen uptake” value ([1]; 0.5 g/L/day 2-HIBA, FIGS. 5 and 6) was “did not negatively impact”, the “2,3-BDO concentration in R1” value ([1]; 0.5 g/L/day (4.8 mM/day) 2-HIBA added to R1, increased from 5.7 g/L) was 14 g/L and the “impact on gas uptake” value ([1]; 1 g/L/day (9.6 mM/day) 2-HIBA) was “not negatively impacted”. The “overall 2,3-BDO concentration” value ([1]; 1 g/L/day (9.6 mM/day) 2-HIBA, highest reached, FIG. 7) was 23.9 g/L, the Acetate ([1]; R1, average across eight days of stable operation, 0.5 g/L/day 2-HIBA) was 6.5 g/L and the “2,3 BDO” value [1, 3] was 13.7 g/L. For the same molecule, the “2,3 BDO productivity” value [1, 3] was 27 g/L/day, the Biomass [1, 3] was 9.2 g/L and the Ethanol [1, 3] was 14.4 g/L. It also gave a Lactate [1, 3] of 0.0 g/L, a CO2 production [1, 4] of 5630 mmol/L and a CO uptake [1, 4] of -8830 mmol/L. For the same molecule, the CO utilisation [1, 4] was 53%, the H2 production [1, 4] was 423 mmol/L and the “2,3 BDO” value [1, 5] was 21.3 g/L. The “2,3 BDO productivity” value [1, 5] was 16 g/L/day, the Acetate [1, 5] was 7.8 g/L and the Biomass [1, 5] was 15.6 g/L. It also gave an Ethanol [1, 5] of 28.3 g/L, a Lactate [1, 5] of 0.0 g/L and a CO2 production [1, 6] of 4932 mmol/L. It also gave a CO uptake [1, 6] of -7930 mmol/L, a CO utilisation [1, 6] of 63% and an H2 production [1, 6] of 413 mmol/L. For the same molecule, the average ethanol concentration ([2]; 0.05 g/L (0.48 mM) 2-HIBA) was 17 g/L, the “impact on the growth of the fermentation” value ([2]; 0.05 g/L (0.48 mM) 2-HIBA in the media from start) was “no impact on the growth” and the “2,3-butanediol concentration” value ([2]; 0.05 g/L (0.48 mM) 2-HIBA, average) was 15.5 g/L. For the same molecule, the “log2 fold_change, or1907 Indole-3-glycerol phosphate synthase CDS” value (LZ1561; [7]) was −3.042, the “log2 fold_change, or2161 Alcohol dehydrogenase CDS” value (LZ1561; [7]) was −3.476 and the “log2 fold_change, or2739 Glutamate synthase (NADPH) CDS” value (LZ1561; [7]) was −3.498. The “log2 fold_change, or2997 Glycerol dehydrogenase CDS” value (LZ1561; [7]) was −4.924, the “log2 fold_change, or3075 Glucarate dehydratase CDS” value (LZ1561; [7]) was −4.084 and the “log2 fold_change, or3076 hypothetical protein CDS” value (LZ1561; [7]) was −3.469. The “log2 fold_change, or3079 Methylglyoxal reductase (NADPH-dependent) CDS” value (LZ1561; [7]) was −4.02, the “log2 fold_change, or3080 transcriptional regulator, CdaR CDS” value (LZ1561; [7]) was −3.947 and the “log2 fold_change, or1190 2-isopropylmalate synthase CDS” value (LZ1561; [8]) was 3.63. For the same molecule, the “log2 fold_change, or1191 3-isopropylmalate dehydratase large subunit CDS” value (LZ1561; [8]) was 3.55, the “log2 fold_change, or1193 3-isopropylmalate dehydrogenase CDS” value (LZ1561; [8]) was 3.289 and the “log2 fold_change, or2387 Ketol-acid reductoisomerase CDS” value (LZ1561; [8]) was 3.202. The “log2 fold_change, or2388 Dihydroxy-acid dehydratase CDS” value (LZ1561; [8]) was 2.901, the “log2 fold_change, or2389 acetolactate synthase, large subunit, biosynthetic type CDS” value (LZ1561; [8]) was 3.255 and the “log2 fold_change, or2390 acetolactate synthase, small subunit CDS” value (LZ1561; [8]) was 3.237. For the same molecule, the “log2 fold_change, or2461 General substrate transporter CDS” value (LZ1561; [8]) was 2.867, the response in metabolites (LZ1561; 0.5 g/L (4.8 mM) 2-HIBA added on day 10.78) was “decreasing acetate, ethanol and biomass with increasing 2,3-BDO” and the Biomass (LZ1561; Day 12.8-14.0, stable 0.5 g/L HIBA addition, before 4.7) was 3.45 g/L. It also gave a CO uptake (LZ1561; Day 12.8-14.0, stable 0.5 g/L HIBA addition, before 5.7) of 5.1 mol/L/day.
